Our source for the IC50 values is BindingDB's records for doi:10.1021/jm101144f (Dana-Farber Cancer Institute, 2010).

SMILES strings stand for the structures.

The test can be described thus: Inhibition of PI3Kalpha in human PC3 cells expressing Akt1 S473D mutant assessed as phosphorylation of Akt Thr308 by immunoblotting.

As usually defined, the IC50 is the concentration that gives 50% inhibition. `COCCC(=O)N1CCN(c2ccc(Nc3ccnc4ccc(-c5cnc6ccccc6c5)cc34)cc2C(F)(F)F)CC1` [1-(4-(4-([3,6'-biquinolin]-4'-ylamino)-2-(trifluoromethyl)phenyl)piperazin-1-yl)-3-methoxypropan-1-one]: the IC50 was above 300 nM.
